Laboratory results from US20220152031A1, “PYRIDAZINONES AND METHODS OF USE THEREOF” (Goldfinch Bio, Inc., priority 2019, published 2022).
Like-named read-outs stand apart in the source and are kept apart here.

Target: T1, TRPC4 (Homo sapiens, UniProt Q9UBN4)
T1 construct: expressed in transfected cells
T1 sequence (Q9UBN4 1-982 isoform Q9UBN4-5): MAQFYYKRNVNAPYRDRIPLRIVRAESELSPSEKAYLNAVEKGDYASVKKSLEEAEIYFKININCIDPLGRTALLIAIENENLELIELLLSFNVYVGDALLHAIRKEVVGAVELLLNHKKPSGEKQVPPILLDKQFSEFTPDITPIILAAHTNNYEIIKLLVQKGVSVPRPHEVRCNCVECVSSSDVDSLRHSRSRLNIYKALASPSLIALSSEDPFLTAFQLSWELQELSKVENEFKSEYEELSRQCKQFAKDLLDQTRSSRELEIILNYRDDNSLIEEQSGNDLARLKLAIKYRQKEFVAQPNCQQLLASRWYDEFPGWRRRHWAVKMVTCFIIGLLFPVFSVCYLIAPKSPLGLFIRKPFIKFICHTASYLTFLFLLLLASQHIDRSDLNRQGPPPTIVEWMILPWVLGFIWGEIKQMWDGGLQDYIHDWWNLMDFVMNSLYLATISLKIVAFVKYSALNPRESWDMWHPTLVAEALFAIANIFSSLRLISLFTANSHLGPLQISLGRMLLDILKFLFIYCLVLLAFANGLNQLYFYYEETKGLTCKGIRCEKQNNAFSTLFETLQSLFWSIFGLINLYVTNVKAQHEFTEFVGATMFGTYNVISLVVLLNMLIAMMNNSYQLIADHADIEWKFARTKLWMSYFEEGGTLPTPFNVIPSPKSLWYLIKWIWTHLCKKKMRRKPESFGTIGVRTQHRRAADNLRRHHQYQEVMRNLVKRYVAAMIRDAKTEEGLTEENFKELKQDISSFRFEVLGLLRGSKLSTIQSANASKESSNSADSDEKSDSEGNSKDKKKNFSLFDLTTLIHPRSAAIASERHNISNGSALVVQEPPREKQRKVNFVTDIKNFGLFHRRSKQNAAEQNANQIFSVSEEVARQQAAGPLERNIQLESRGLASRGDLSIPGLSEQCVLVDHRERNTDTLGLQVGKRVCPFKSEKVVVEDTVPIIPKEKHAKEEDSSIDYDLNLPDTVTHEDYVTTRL
Experiment: TRPC4 activity assay (FLIPR calcium fluorescence, HEK-TREx hTRPC4 cells)
Type: cell-based
Protocol: ICLN-1694 cells (HEK-TREx hTRPC4) expressing TRPC4 were generated as follows. Commercially available HekTrex-293 cells were seeded at 0.7×10^6 cells/well in a 1×6-well plate 24 hrs prior to transfection using 2 mL cell growth media containing no antibiotics (lx DMEM/high glucose (Hyclone #SH30022.02); 10% fetal bovine serum (Sigma) 2 mM sodium pyruvate, 10 mM HEPES). […] On day 2, 2 μg of plasmid DNA plus 6 μl of Xtreme-GENE HP reagent in Optimem (200 μl total volume) was prepared and incubated for 15 min at room temperature. This plasmid solution was then gently overlayed dropwise onto each well and the plate was gently swirled to mix complex with the media for approximately 30 seconds. Transfected cells were incubated at 37° C. in a 10% CO2 incubator for 24 hrs. The transfected cells were harvested and transferred into 2×150 mm dishes containing cell growth media with no antibiotics at 37° C.
The next day selection was initiated to generate a stable pool by adding cell growth media containing 150 μg/mL Hygromycin and 5 μg/mL Blasticidin and cells were allowed to grow. Media with the selection agent was changed every 1-2 days as needed to remove dead cells. After 7 days, the hygromycin concentration was reduced to 75 μg/mL and cells growth was allowed to continue.
Single clones were selected as follows. The stable pool was diluted to 10 cells/mL and seeded (100 μl/well) into 24×96 well plates (˜1 cell/well) and allowed to grow for 7 days in cell growth media. Fresh media (100 μl) was added and the cells allowed to grow for another 1-2 weeks and then stored frozen or used immediately.
10-point dose response curves were generated using the Echo-550 acoustic dispenser. Compound source plates were made by serially diluting compound stocks to create 10 mM, 1 mM, and 0.1 mM solutions in DMSO into Echo-certified LDV plates. The Echo then serially spotted 100% DMSO stock solutions into source dose response plates to generate a 4-fold dilution scheme. 100% DMSO was added to the spotted dose response plates to bring the final volume to 5 μl. 300 nl of the dose response stock plate was then spotted into pre-incubation and stimulation assay plates. 50 μl of pre-incubation buffer and 100 μl of stimulation buffer was then added to the plates resulting in a final assay test concentration range of 30 μM to 0.0001 μM with a final DMSO concentration of 0.3%.
ICLN-1694 cells (HEK-TREx hTRPC4) were plated onto 384 well, black pdl-coated microplates and maintained in cell growth media supplemented with 1 μg/mL tetracycline the day prior to use for experiments. TRPC4 expression was induced by the application of 1 μg/mL tetracycline at the time of plating. […] Cells were incubated at room temperature, protected from light, for 60-90 minutes. After the incubation period, the dye was removed and replaced with 10 μl of EBSS. Cell, pre-incubation and stimulation plates were loaded onto the FLIPR-II and the assay was initiated. The FLIPR measured a 10 second baseline and then added 10 μl of 2× compounds (or controls). Changes in fluorescence were monitored for an additional 5 minutes. After a 5 minute pre-incubation, 20 μl of 2× Englerin A (with 1× compound or controls) was added to the cell plate. The final Engerlin A stimulation concentration in the assay was 100 nM. After the Englerin A addition, changes in fluorescence were monitored for an additional 5 minutes.
Compound modulation of TRPC4 calcium response was determined as follows. After the Englerin A, fluorescence was monitored for a 5-minute period. The maximum relative fluorescence response (minus the control response of 1 μM of an internal control compound known to maximally block TRPC4 calcium response, the “REF INHIB” in the formula below) was captured and exported from the FLIPR.
Compound effect is calculated as % inhibition using the following formula: […]
wherein “RFU” is the relative fluorescent units.

[1] = Table 6, HEK-TREx hTRPC4, read-out: hTRPC4-FLIPR IC50
[2] = Table 5, HEK-TREx hTRPC4, read-out: TRPC4 FLIPR IC50
[3] = Table 7, HEK-TREx hTRPC4, read-out: TRPC4-FLIPR IC50

Q: With `CC(c1ccc(F)cc1C(F)(F)F)N1CCN(c2cn[nH]c(=O)c2Cl)CC1=O` (single isomer, unassigned) [MF] as the compound, how does the IC50 [1] read?
A: Its IC50 is 0.01 to 1000 nM.

Q: How did the IC50 [2] turn out when `O=C1CN(c2cn[nH]c(=O)c2Cl)CCN1Cc1ccccc1C(F)(F)F` [AO] was run?
A: Its IC50 is 0.01 to 1000 nM.

Q: Which results are given for `CCc1ncccc1N(CC)C1CCN(c2cn[nH]c(=O)c2Cl)CC1` [LW, 4-chloro-5-[4-[ethyl(2-ethylpyridin-3-yl)amino]piperidin-1-yl]-2,3-dihydropyridazin-3-one]?
A: IC50 [2]: 0.01 to 1000 nM; IC50 [1]: 0.01 to 1000 nM

Q: What does the source list for `CCc1ncccc1[C@H](C)N1CCN(c2cn[nH]c(=O)c2Cl)CC1` [LY, 4-chloro-5-[4-[(1S)-1-(2-ethylpyridin-3-yl)ethyl]piperazin-1-yl]-2,3-dihydropyridazin-3-one]?
A: IC50 [2]: 0.01 to 1000 nM; IC50 [1]: 0.01 to 1000 nM

Q: What does the source list for `C[C@@H]1Cc2c(nnn2[C@H](C)c2ccccc2C(F)(F)F)CN1c1cn[nH]c(=O)c1Cl` [MX, 4-chloro-5-[(6R)-6-methyl-1-[(1R)-1-[2-(trifluoromethyl)phenyl]ethyl]-1H,4H,5H,6H,7H-[1,2,3]triazolo[4,5-c]pyridin-5-yl]-2,3-dihydropyridazin-3-one]?
A: IC50 [2]: 0.01 to 1000 nM; IC50 [3]: 0.01 to 1000 nM

Q: For `CN1CCN(C(=O)c2nn(Cc3ccccc3C(F)F)c3c2CN(c2cn[nH]c(=O)c2Cl)CC3)CC1` [OM], which IC50 [3] is on record?
A: Its IC50 is 0.01 to 1000 nM.

Q: Which IC50 [2] does the source give for `NC(=O)c1nn(Cc2ccccc2C(F)(F)F)c2c1CN(c1cn[nH]c(=O)c1Cl)CC2` [OP, 5-(5-Chloro-6-oxo-1,6-dihydropyridazin-4-yl)-1-[[2-(trifluoromethyl)phenyl]methyl]-1H,4H,5H,6H,7H-pyrazolo[4,3-c]pyridine-3-carboxamide] here?
A: Its IC50 is 0.01 to 1000 nM.

Q: And the IC50 [3]?
A: Its IC50 is 0.01 to 1000 nM.

Q: `CN1CCN(Cc2nn(Cc3ccccc3C(F)F)c3c2CN(c2cn[nH]c(=O)c2Cl)CC3)CC1` [OU, 4-Chloro-5-(1-[[2-(difluoromethyl)phenyl]methyl]-3-[(4-methylpiperazin-1-yl)methyl]-1H,4H,5H,6H,7H-pyrazolo[4,3-c]pyridin-5-yl)-2,3-dihydropyridazin-3-one] was tested. Which IC50 [3] did it give?
A: Its IC50 is 0.01 to 1000 nM.

Q: With `CN(C)C(=O)c1nc2c(n1Cc1ccccc1C(F)(F)F)CCN(c1cn[nH]c(=O)c1Cl)C2` [PW] as the compound, how does the IC50 [2] read?
A: The IC50 was 0.01 to 1000 nM.

Q: And the IC50 [3]?
A: Its IC50 is 0.01 to 1000 nM.

Q: With `CN(c1ncc2c(n1)CN(c1cn[nH]c(=O)c1Cl)C2)c1ccccc1C(F)(F)F` [QM] as the compound, how does the IC50 [2] read?
A: Its IC50 is 0.01 to 1000 nM.

Q: What about the IC50 [3] of the same compound?
A: The IC50 was 0.01 to 1000 nM.
